Experimental data: patent US20140212401A1, “USE OF SYNTHETIC AND BIOLOGICAL FUNGICIDES IN COMBINATION FOR CONTROLLING HARMFUL FUNGI” (Bayer CropScience LP, priority 2009, published 2014)

Tests used:
[1] = system: Erysiphe necator (UNCINE); experiment: Example 15: field trial grapevine cv. Müller-Thurgau, natural infection, percent infected clusters
Experimental: The trial was conducted under field conditions. Established grapevine plants (cv. Müller-Thurgau) were grown under standard conditions with adequate supply of water and nutrients. The application was repeated 3 to 6 times (see below) with 14 days intervals applying single products. No other products or compounds were applied for pathogen control. […] For comparison, a part of the plants was sprayed with metrafenone alone (used as the commercial product VIVANDO®, BASF; 0.2 L/ha). […] UNCINE infection occurred naturally. Disease incidences were evaluated 6 days after 5th application (6 DAT(5)) and 15 days after 6th application (15 DAT(6)). Disease levels observed were rated in percent infected clusters in the respective plot given as % attack.

Sphaerotheca fuliginea [2] = experiment: Example 9: inoculated melons, spray treatments, visual % infection of plant
Experimental: (§1) Evaluation was carried out by visually determining the infected leaf areas in %.
Melons were cultivated and grown under standard conditions with adequate supply of water and nutrients. The test plants were inoculated with an aqueous spore suspension of Sphaerotheca fuliginea. […] For comparison, a part of the plants was sprayed with metrafenone alone (used as the commercial product VIVANDO®, BASF; dose rate per treatment: 0.2 L/ha; diluted with water to 500 L/ha). […] 27 and 34 days after the first treatment (1 or 8 days after last treatment), the extent of the development of the disease was determined visually in % infection of the plant.

Sphaerotheca fuliginea [3] = experiment: Example 12: inoculated cucurbits, spray treatments, visual % infection of upperside of leaves; format: in vivo; details: 38 days after first treatment, Metrafenone (VIVANDO 0.2 L/ha) applications ABC
Excerpt: The results are compiled in Table 12 below.

Erysiphe necator = experiment: Example 29: inoculated grapes, spray treatments, visual % infection of clusters; details: Metrafenone (VIVANDO 0.27 L/ha) applications ABCD
Experimental: Grapes were grown under standard conditions with adequate supply of water and nutrients. The test plants were inoculated with an aqueous spore suspension of Erysiphe necator. […] For comparison, a part of the plants was sprayed with metrafenone alone (used as the commercial product VIVANDO®, BASF; dose rate per treatment: 0.27 L/ha; diluted with water to 800 L/ha). […] 11 days after the 6th application, the extent of the development of the disease was determined visually in % infection of the clusters.

Leveillula taurica = experiment: Example 10: inoculated peppers, spray treatments, visual % infection of leaves; details: Metrafenone (VIVANDO 0.2 L/ha) applications AB
Experimental: as §1
The test plants were inoculated with an aqueous spore suspension of Leveillula taurica. […] For comparison, a part of the plants was sprayed with metrafenone alone (used as the commercial product VIVANDO®, BASF; dose rate per treatment: 0.2 L/ha; diluted with water to 800 L/ha). […] 35 and 42 days after the first treatment (7 or 14 days after last treatment), the extent of the development of the disease was determined visually in % infection of the leaves.

Uncinula necator [4] = experiment: Example 2: inoculated vine grapes, spray treatments, visual % infection of racemes
Experimental: Vine grapes were grown under standard conditions with adequate supply of water and nutrients. The test plants were inoculated with an aqueous spore suspension of Uncinula necator. […] For comparison, a part of the plants was sprayed with metrafenone alone (used as the commercial product VIVANDO®, BASF; dose rate per treatment: 0.02 Vol.-%; diluted with water to 800 L/ha). […] 85 and 91 days after the first treatment (15 or 21 days after last treatment), the extent of the development of the disease was determined visually in % infection of the racemes.

Sphaerotheca fuliginea [5] = experiment: Example 27: inoculated cucumbers, spray treatments, visual % infection of leaves; details: 38 days after first treatment; Metrafenone (VIVANDO 0.3 L/ha) applications ABC
Experimental: as §1
Cucumbers were cultivated and grown under standard conditions with adequate supply of water and nutrients. The test plants were inoculated with an aqueous spore suspension of Sphaerotheca fuliginea. […] For comparison, a part of the plants was sprayed metrafenone alone (used as the commercial product VIVANDO®, BASF; dose rate per treatment: 0.3 L/ha; diluted with water to 500 L/ha). […] 38 days after the first treatment, the extent of the development of the disease was determined visually in % infection of the leaves.

Uncinula necator [6] = experiment: Example 13: inoculated grapes, spray treatments, visual % infection of raceme and leaves; format: in vivo
Excerpt: The results are compiled in Table 13 below.

Cercospora beticola = experiment: Example 8: inoculated sugar beets, spray treatments, visual % infection of plant
Experimental: as §1
Sugar beets were cultivated and grown under standard conditions with adequate supply of water and nutrients. The test plants were inoculated with an aqueous spore suspension of Cercospora beticola. […] For comparison, a part of the plants was sprayed with pyraclostrobin alone (used as the commercial product HEADLINE®, BASF; dose rate per treatment: 0.6 L/ha; diluted with water to 400 L/ha). […] 46 and 53 days after the first treatment (7 or 14 days after last treatment), the extent of the development of the disease was determined visually in % infection of the plant.

[7] = system: Pseudoperonospora cubensis; experiment: Example 4: inoculated cucurbits, spray treatments, visual % infection of leaves; format: in vivo; details: 28 days after first treatment
Excerpt: The results are compiled in Table 4 below. [table]

Sclerotinia sclerotiorum = experiment: Example 11: inoculated beans, spray treatments, visual % infection of plants; details: Boscalid (CANTUS 1.0 kg/ha) application A
Experimental: as §1
Beans were cultivated and grown under standard conditions with adequate supply of water and nutrients. The test plants were inoculated with an aqueous spore suspension of Sclerotinia sclerotiorum. […] For comparison, a part of the plants was sprayed with boscalid alone (used as the commercial product CANTUS®, BASF; dose rate per treatment: 1.0 kg/ha; diluted with water to 500 L/ha). […] 28 and 35 days after the first treatment (0 or 7 days after last treatment), the extent of the development of the disease was determined visually in % infection of the plants.

Botrytis cinerea = experiment: Example 1: inoculated vine grapes cv. Riesling, spray treatments, visual % infection of racemes
Experimental: as §1
Vine grapes of the cultivar “Riesling” were grown under standard conditions with adequate supply of water and nutrients. The test plants were inoculated with an aqueous spore suspension of Botrytis cinerea. […] For comparison, a part of the plants was sprayed with boscalid alone (used as the commercial product CANTUS®, BASF; dose rate per treatment: 1.2 kg/ha; diluted with water to 800 L/ha). […] 95 and 100 days after the first treatment (25 or 30 days after last treatment), the extent of the development of the disease was determined visually in % infection of the racemes.

Monilinia laxa = experiment: Example 7: inoculated stonefruit, spray treatments, visual % infection of plant
Experimental: as §1
Stonefruit was grown under standard conditions with adequate supply of water and nutrients. The test plants were inoculated with an aqueous spore suspension of Monilinia laxa. […] Another part was sprayed both with boscalid and B. subtilis strain QST713. 5 and 11 days after the first treatment (0 or 6 days after last treatment), the extent of the development of the disease was determined visually in % infection of the plant.

Bremia lactucae = experiment: Example 23: inoculated lettuce, spray treatments, visual % infection of plant; details: Boscalid (CANTUS 1 kg/ha) applications AB
Experimental: as §1
The test plants were inoculated with an aqueous spore suspension of Bremia lactucae. […] For comparison, a part of the plants was sprayed with boscalid alone (used as the commercial product CANTUS®, BASF; dose rate per treatment: 1 kg/ha; diluted with water to 500 L/ha). […] 7 days after the last treatment, the extent of the development of the disease was determined visually in % infection of the plant.

[8] = system: Botrytis cinirea (BOTRCI); experiment: Example 16: field trial grapevine cv. Müller-Thurgau, natural infection, percent infected clusters
Experimental: The trial was conducted under field conditions. Established grapevine plants (cv. Müller-Thurgau) were grown under standard conditions with adequate supply of water and nutrients. The application was repeated 4 to 9 times (see below) with 7-14 days intervals applying single products. No other products or compounds were applied for pathogen control. […] For comparison, a part of the plants was sprayed with dithianon alone (used as the commercial product DELAN®, Bayer CropScience; 0.75 kg/ha). […] BOTRCI infection occurred naturally. Disease incidences were evaluated 21 days after 9th application (21 DAT(9)). Disease levels observed were rated in percent infected clusters in the respective plot given as % attack.

[9] = system: Venturia inequalis (VENTIN); experiment: Example 18: field trial apple cv. Rubinette, natural infection, percent infected leaf area
Experimental: The trial was conducted under field conditions. Established apple plants (cv. Rubinette) were grown under standard conditions with adequate supply of water and nutrients. The application was repeated 6 to 10 times (see below) with 7-14 days intervals applying single products or product mixtures. No other products or compounds were applied for pathogen control. […] VENTIN infection occurred naturally. Disease incidences were evaluated 6 days after 10th application (6 DAT(10)). Disease levels observed were rated in percent infected leaf area in the respective plot given as % attack.

Plasmopara viticola = experiment: Example 3: inoculated vine grapes, spray treatments, visual % infection of racemes and leaves, severity and frequency; details: Dithianon (DELAN WG 525 g/ha) applications ABCDEFGHI
Experimental: as §1
The test plants were inoculated with an aqueous spore suspension of Plasmopara viticola. […] Another part was sprayed both with dithianon and B. subtilis strain QST713. 67 and 73 days after the first treatment (4 or 10 days after last treatment), the extent of the development of the disease was determined visually in % infection of the racemes. 73 days after the first treatment (10 days after last treatment), the severity and the frequency of the infection on the racemes were determined visually [%]. 87 days after the first treatment (14 days after last treatment), the extent of the development of the disease was determined visually in % infection of the leaves.

[10] = system: Plasmopara viticola (PLASVI); experiment: Example 17: field trial grapevine cv. Müller-Thurgau, natural infection, percent infected leaf area and clusters; details: for Attacked Leaf Area/Clusters 10 DAA(7): percent infected clusters; for Attacked Leaf Area/Clusters 4 DAA(9): percent infected leaf area
Experimental: The trial was conducted under field conditions. Established grapevine plants (cv. Müller-Thurgau) were grown under standard conditions with adequate supply of water and nutrients.
The application was repeated 4 to 9 times (see below) with 7-14 days intervals applying single products. No other products or compounds were applied for pathogen control. […] For comparison, a part of the plants was sprayed with dithianon alone (used as the commercial product DELAN®, Bayer CropScience; 0.75 kg/ha). […] Another part was sprayed both with dithianon and B. subtilis strain QST713. PLASVI infection occurred naturally. Disease incidences were evaluated 10 days after 7th application (10 DAA(7)) and 4 days after 9th application (4 DAA(9)). Disease levels observed were rated in percent infected leaf area (4 DAA(9)) and in percent infected clusters (10 DAA(7)) in the respective plot given as % attack.

[11] = Metrafenone (VIVANDO 0.2 L/ha) applications ABC
[12] = Metrafenone (VIVANDO 0.2 L/ha) applications ABCDEF
[13] = Metrafenone (VIVANDO 0.2 L/ha) application A
[14] = Metrafenone (VIVANDO 0.2 L/ha) applications AB
[15] = Metrafenone (VIVANDO 0.02 Vol.-%) applications ABC
[16] = Metrafenone (VIVANDO 0.02 Vol.-%) applications ABCD
[17] = Metrafenone (VIVANDO 0.2 L/ha) applications ABCDE
[18] = Metrafenone (VIVANDO 0.2 L/ha) applications ABCDEFG
[19] = Pyraclostrobin (HEADLINE 0.6 L/ha) application A
[20] = Pyraclostrobin (HEADLINE 0.6 L/ha) applications AB
[21] = Pyraclostrobin (HEADLINE 0.6 L/ha) applications ABC
[22] = Boscalid (CANTUS 1.2 kg/ha) applications AB
[23] = Boscalid (CANTUS 1.2 kg/ha) applications ABC
[24] = Boscalid application A (pyraclostrobin/boscalid mixture PRISTINE 0.66 g/ha)
[25] = Boscalid applications AB (pyraclostrobin/boscalid mixture PRISTINE 0.66 g/ha)
[26] = Dithianon (DELAN 0.75 kg/ha) applications ABCD
[27] = Dithianon (DELAN 0.75 kg/ha) applications ABCDEFGHI

## COc1cc(C)c(C(=O)c2c(OC)ccc(Br)c2C)c(OC)c1OC [Metrafenone, metrafenone]
[1]; [11]
  Attacked Clusters 6 DAT(5): 7.9%
  Attacked Clusters 15 DAT(6): 26%
[1]; [12]
  Attacked Clusters 6 DAT(5): 2.2%
  Attacked Clusters 15 DAT(6): 4.2%
Sphaerotheca fuliginea [2]; [13]
  Attack on Plant 27 DAT: 24%
  Attack on Plant 34 DAT: 32%
Sphaerotheca fuliginea [2]; [14]
  Attack on Plant 27 DAT: 9.2%
  Attack on Plant 34 DAT: 14%
Sphaerotheca fuliginea [3]
  Attack on Leaves: 50%
Erysiphe necator
  Attack on clusters 11 DAA (6): 25%
Leveillula taurica
  Attack on Plant 35 DAT: 22%
  Attack on Plant 42 DAT: 43%
Uncinula necator [4]; [15]
  Attack on Raceme 85 DAT: 26%
  Attack on Raceme 91 DAT: 32%
Uncinula necator [4]; [16]
  Attack on Raceme 85 DAT: 11%
  Attack on Raceme 91 DAT: 14%
Sphaerotheca fuliginea [5]
  Attack on Leaves: 15%
Uncinula necator [6]; [17]
  Attack on Leaves 76 DAT: 4.3%
  Attack on Leaves 90 DAT: 35%
  Attack on Raceme 76 DAT: 8.3%
  Attack on Raceme 90 DAT: 43%
Uncinula necator [6]; [18]
  Attack on Leaves 76 DAT: 3.0%
  Attack on Leaves 90 DAT: 13%
  Attack on Raceme 76 DAT: 6.0%
  Attack on Raceme 90 DAT: 22%

## COC(=O)N(OC)c1ccccc1COc1ccn(-c2ccc(Cl)cc2)n1 [Pyraclostrobin, pyraclostrobin]
Cercospora beticola; [19]
  Attack on Plant 46 DAT: 11%
  Attack on Plant 53 DAT: 17%
Cercospora beticola; [20]
  Attack on Plant 46 DAT: 4.7%
  Attack on Plant 53 DAT: 5.7%
Cercospora beticola; [21]
  Attack on Plant 46 DAT: 2.7%
  Attack on Plant 53 DAT: 3.7%

## CCCCCCCCc1c(CC)nc2ncnn2c1N [BAS 650, 5-ethyl-6-octyl-[1,2,4]triazolo[1,5-a]pyrimidine-7-ylamine]
[7]; BAS 650 (BAS 650 00F 1.2 L/ha) applications AB
  Attack on Leaves: 7%
[7]; BAS 650 (BAS 650 00F 1.2 L/ha) applications ABC
  Attack on Leaves: 6.2%

## O=C(Nc1ccccc1-c1ccc(Cl)cc1)c1cccnc1Cl [Boscalid, boscalid]
Sclerotinia sclerotiorum
  Attack on Plant 28 DAT: 30%
  Attack on Plant 35 DAT: 53%
Botrytis cinerea; [22]
  Attack on Raceme 95 DAT: 35%
  Attack on Raceme 100 DAT: 44%
Botrytis cinerea; [23]
  Attack on Raceme 95 DAT: 28%
  Attack on Raceme 100 DAT: 36%
Monilinia laxa; [24]
  Attack on Plant 5 DAT: 1.8%
  Attack on Plant 11 DAT: 36%
Monilinia laxa; [25]
  Attack on Plant 5 DAT: 1.8%
  Attack on Plant 11 DAT: 29%
Bremia lactucae
  Attack on Plant 7 DALT: 14%

## N#Cc1sc2c(=O)c3ccccc3c(=O)c=2sc1C#N [Dithianon, dithianon]
[8]; [26]
  Attacked Clusters 21 DAT(9): 12%
[8]; [27]
  Attacked Clusters 21 DAT(9): 15%
[9]; Dithianon (DELAN 0.75 kg/ha) applications ABCDEF
  Attacked Leaf Area 6 DAT10: 12%
[9]; Dithianon (DELAN 0.75 kg/ha) applications ABCDEFGHIJ
  Attacked Leaf Area 6 DAT10: 7.3%
Plasmopara viticola
  Attack on Leaves 87 DAT: 25%
  Attack on Raceme 67 DAT: 34%
  Attack on Raceme 73 DAT: 48%
Plasmopara viticola; infection on racemes
  Frequency 73 DAT: 37%
  Severity 73 DAT: 7.5%
[10]; [26]
  Attacked Leaf Area/Clusters 10 DAA(7): 30%
  Attacked Leaf Area/Clusters 4 DAA(9): 11%
[10]; [27]
  Attacked Leaf Area/Clusters 10 DAA(7): 25%
  Attacked Leaf Area/Clusters 4 DAA(9): 7.5%
